Experiments:
[1] = Decomposition rate under partial discharge in the presence of oxygen; format: physicochemical; details: gas mixture with O2 and CO2 (4 vol.-% 2-C4HF7, 4 vol.-% O2, 92 vol.-% CO2); needle-plane electrodes, positive DC 0-35 kV
Description: The decomposition rate of 2-C4HF7 in a gas mixture containing carbon dioxide and oxygen were tested. Specifically, a gas mixture containing 4 vol.-% 2-C4HF7, 4 vol.-% O2 and 92 vol.-% CO2 was subjected to partial discharge tests and the resulting decomposition was determined.
Specifically, an experimental setup consisting of a standard GIS-vessel (volume: 55 L) with a needle-plane electrode arrangement was used. A total of ten steel needles (R_100 μm) were connected to a high voltage DC power supply (positive, 0-35 kV). The gap spacing was set to 10 mm. The vessel was equipped with a fan keeping the gas mixture homogeneous during the experiments.

[2] = Dielectric withstand test (breakdown voltage, step DC, uniform field); format: physicochemical
Description: In addition to these tests, the dielectric strength of a mixture containing a monohydrofluoroolefin according to various embodiments, specifically 2-C4HF7, and having a dew point of −5° C. and −30° C., respectively, was determined and compared to the respective dielectric strength of the perfluoroketone decafluoro-3-methylbutan-2-one (“C5”).
Specifically, dielectric withstand tests were performed under DC (step DC, rise-time 300 ns, maximum application time 30 s) in a small vessel (6 L) and custom-built for dielectric testing. Large electrodes (12 cm diameter) with a Rogowski-profile and separated by a small (1.0 cm) distance were used to obtain a uniform field. Prior to the test, the electrodes were sandblasted to create a uniform surface roughness profile (Rt=40 μm).
A large amount of measurements (typically, more than 100) of measurements were performed; the peak voltage level used for each voltage application was randomly selected in the region close to U50, the voltage level for which a 50% breakdown probability is expected. The outcome (breakdown or hold) of each measurement is extracted from the time-dependence of the voltage across the test object. A probit regression is then used to fit the results to a probability distribution and to extract U50 and s, the width of the breakdown probability distribution, from the measurement data.

FC(=C(F)C(F)(F)F)C(F)(F)F [2-C4F8, octafluorobutene]
decomposition rate under partial discharge [1]: 7 mmol/C
breakdown voltage ([2]; negative direct current, mixture, partial pressure 228 mbar at 20° C.): 17.5 kV/mm
breakdown voltage ([2]; positive direct current, mixture, partial pressure 228 mbar at 20° C.): 17.7 kV/mm

O=C(C(F)(F)F)C(F)(C(F)(F)F)C(F)(F)F [C5, 1,1,1,3,4,4,4-heptafluoro-3-(trifluoromethyl)-butan-2-one]
breakdown voltage ([2]; negative direct current, mixture with O2 and CO2, dew point -5° C.): 19.2 kV/mm
breakdown voltage ([2]; negative direct current, mixture with O2 and CO2, dew point -30° C.): 16.5 kV/mm
breakdown voltage ([2]; positive direct current, mixture with O2 and CO2, dew point -5° C.): 19.7 kV/mm
breakdown voltage ([2]; positive direct current, mixture with O2 and CO2, dew point -30° C.): 16.9 kV/mm

From patent publication US11978600B2, “Dielectric-insulation or arc-extinction fluid” (HITACHI ENERGY LTD, priority 2019, dated 2024)
